Results published in the supplement of paper PMC10307832.

What was measured:
Experiment in all cases: relative viability (nuclei count vs DMSO), 5 days (fraction); higher = more cells survive
Idelalisib + Lapatinib = compound: CC[C@H](Nc1ncnc2[nH]cnc12)c1nc2cccc(F)c2c(=O)n1-c1ccccc1 [Idelalisib] + CS(=O)(=O)CCNCc1ccc(-c2ccc3ncnc(Nc4ccc(OCc5cccc(F)c5)c(Cl)c4)c3c2)o1 [Lapatinib] (partner 2 µM)
Summary of the method: (§1)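 Lung cancer cell lines, seeded in 1536-well plates, were treated the following day by pin tool with a single drug or with five library-drug doses (not always all listed) in √10 steps on top of a fixed anchor-drug dose. Cells were fixed and nuclei stained in one step after 5 days, and nuclei were counted. Relative viability is the nuclei count for treated wells divided by that for vehicle wells, reported as medians of duplicate plates.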

Idelalisib + Crizotinib = compound: CC[C@H](Nc1ncnc2[nH]cnc12)c1nc2cccc(F)c2c(=O)n1-c1ccccc1 [Idelalisib] + C[C@@H](Oc1cc(-c2cnn(C3CCNCC3)c2)cnc1N)c1c(Cl)ccc(F)c1Cl [Crizotinib] (partner 1 µM)
Summary of the method: as §1

Idelalisib + Tozasertib = compound: CC[C@H](Nc1ncnc2[nH]cnc12)c1nc2cccc(F)c2c(=O)n1-c1ccccc1 [Idelalisib] + Cc1cc(Nc2cc(N3CCN(C)CC3)nc(Sc3ccc(NC(=O)C4CC4)cc3)n2)n[nH]1 [Tozasertib] (partner 0.1 µM)
Summary of the method: as §1

Idelalisib + Alpelisib = compound: CC[C@H](Nc1ncnc2[nH]cnc12)c1nc2cccc(F)c2c(=O)n1-c1ccccc1 [Idelalisib] + Cc1nc(NC(=O)N2CCC[C@H]2C(N)=O)sc1-c1ccnc(C(C)(C)C(F)(F)F)c1 [Alpelisib] (partner 2 µM)
Summary of the method: as §1

Row | Cell Line | relative viability (Idelalisib + Lapatinib; first compound 0.04 µM) | relative viability (Idelalisib + Lapatinib; first compound 0.1265 µM) | relative viability (Idelalisib + Lapatinib; first compound 0.4 µM) | relative viability (Idelalisib + Lapatinib; first compound 1.265 µM) | relative viability (Idelalisib + Lapatinib; first compound 4 µM) | relative viability (Idelalisib + Crizotinib; first compound 0.04 µM) | relative viability (Idelalisib + Crizotinib; first compound 0.1265 µM) | relative viability (Idelalisib + Crizotinib; first compound 0.4 µM) | relative viability (Idelalisib + Crizotinib; first compound 1.265 µM) | relative viability (Idelalisib + Crizotinib; first compound 4 µM) | relative viability (Idelalisib + Tozasertib; first compound 0.04 µM) | relative viability (Idelalisib + Tozasertib; first compound 0.1265 µM) | relative viability (Idelalisib + Tozasertib; first compound 0.4 µM) | relative viability (Idelalisib + Tozasertib; first compound 1.265 µM) | relative viability (Idelalisib + Tozasertib; first compound 4 µM) | relative viability (Idelalisib + Alpelisib; first compound 0.04 µM) | relative viability (Idelalisib + Alpelisib; first compound 0.1265 µM) | relative viability (Idelalisib + Alpelisib; first compound 0.4 µM) | relative viability (Idelalisib + Alpelisib; first compound 1.265 µM) | relative viability (Idelalisib + Alpelisib; first compound 4 µM)
1 | SK-LU-1 | 0.851 | 0.866 | 0.617 | 0.998 | 0.661 | 0.923 | 1.06 | 0.826 | 0.777 | 0.826 | 0.294 | 0.313 | 0.337 | 0.32 | 0.327 | 1.43 | 1.12 | 0.886 | 0.876 | 0.968
2 | COR-L23 | 1.09 | 1.14 | 0.711 | 1.29 | 0.926 | 0.881 | 0.678 | 0.67 | 0.712 | 0.393 | 0.196 | 0.195 | 0.207 | 0.225 | 0.162 | 0.698 | 0.769 | 0.634 | 0.69 | 0.763
3 | EMC-BAC-2 | 0.91 | 0.953 | 0.827 | 0.905 | 0.833 | 0.788 | 0.796 | 0.676 | 0.742 | 0.732 | 0.313 | 0.277 | 0.296 | 0.276 | 0.281 | 0.689 | 0.736 | 0.674 | 0.707 | 0.684
4 | NCI-H1355 | 1.06 | 1.1 | 0.751 | 0.972 | 0.888 | 1.21 | 1.13 | 0.977 | 0.988 | 0.902 | 0.534 | 0.611 | 0.442 | 0.488 | 0.386 | 0.956 | 0.767 | 0.751 | 0.679 | 0.568
5 | NCI-H1944 | 0.969 | 0.857 | 0.637 | 0.826 | 0.668 | 1.38 | 0.994 | 1.02 | 0.976 | 0.97 | 0.272 | 0.229 | 0.219 | 0.224 | 0.211 | 0.881 | 0.836 | 0.651 | 0.688 | 0.545
6 | ABC-1 | 1.11 | 1.19 | 1.13 | 1.01 | 1.08 | 0.95 | 1.23 | 1.14 | 1.04 | 0.902 | 0.146 | 0.154 | 0.186 | 0.219 | 0.196 | 0.956 | 1.22 | 1.08 | 1.13 | 0.807
7 | HOP-62 | 1 | 0.912 |  | 1.47 | 1.06 | 0.944 | 0.964 |  | 0.806 | 1.03 | 0.415 | 0.408 | 0.392 | 0.436 | 0.326 | 1.19 | 1.09 |  | 0.853 | 1.06
8 | NCI-H2009 | 0.944 | 1.04 | 0.883 | 0.572 | 0.93 | 1.02 | 1.04 | 1.03 | 0.991 | 1.01 | 0.736 | 0.852 | 0.667 | 0.756 | 0.567 | 1.18 | 1.12 | 1.14 | 1.17 | 1.01
